Results published in patent publication US20030212104A1, “Treatment of diabetes and diabetic complications with NHE-1 inhibitors” (Pfizer Inc., priority 2002, published 2003).

Tested on: diabetic ob/ob mice
Assay: Antidiabetic effect in diabetic ob/ob mice (plasma glucose, insulin, triglyceride)
Type: in vivo
Description: Five to eight week old male C57BLU6J-ob/ob mice (obtained from Jackson Laboratory, Bar Harbor, Me.) are housed five per cage under standard animal care practices. After a one week acclimation period, the animals are weighed and 25 microliters of blood are collected from the retro-orbital sinus prior to any treatment. The blood sample is immediately diluted 1:5 with saline containing 0.025% sodium heparin, and held on ice for metabolite analysis. Animals are assigned to treatment groups so that each group has a similar mean for plasma glucose concentration. After group assignment, animals are dosed orally each day for four days with the vehicle consisting of either: (1) 0.25% w/v methyl cellulose in water without pH adjustment; or (2) 0.1% Pluronic® P105 Block Copolymer Surfactant (BASF Corporation, Parsippany, N.J.) in 0.1% saline without pH adjustment. On day 5, the animals are weighed again and then dosed orally with a test compound or the vehicle alone. All compounds are administered in vehicle consisting of either: (1) 0.25% w/v methyl cellulose in water; or 3) neat PEG 400 without pH adjustment; (2) 10% DMSO/O.1% Pluronic® in 0.1% saline without pH adjustment; or 3) neat PEG 400 without pH adjustment. The animals are then bled from the retro-orbital sinus three hours later for determination of blood metabolite levels. The freshly collected samples are centrifuged for two minutes at 10,000×g at room temperature. The supernatant is analyzed for glucose, for example, by the Abbott VP™ (Abbott Laboratories, Diagnostics Division, Irving, Tex.) and VP Super System® Autoanalyzer (Abbott Laboratories, Irving, Tex.), or by the Abbott Spectrum CCX™ (Abbott Laboratories, Irving, Tex.) using the A-Gent™ Glucose-UV Test reagent system (Abbott Laboratories, Irving, Tex.) (a modification of the method of Richterich and Dauwalder, Schweizerische Medizinische Wochenschrift, 101: 860 (1971)) (hexokinase method) using a 100 mg/dl standard. Plasma glucose is then calculated by the equation: Plasma glucose (mg/dl)=Sample value×8.14
where 8.14 is the dilution factor, adjusted for plasma hematocrit (assuming the hematocrit is 44%).
Hypoglycemic activity of the test compounds is determined by statistical analysis (unpaired t-test) of the mean plasma glucose concentration between the test compound group and vehicle-treated group on day 5. The above assay carried out with a range of doses of a test compound allows the determination of an approximate minimal effective dose (MED) value for the in vivo reduction of plasma glucose concentration.
Five to eight week old male C57BL/6J-ob/ob mice (obtained from Jackson Laboratory, Bar Harbor, Me.) are housed five per cage under standard animal care practices and fed standard rodent diet ad libitum. After a one week acclimation period, the animals are weighed and 25 microliters of blood are collected from the retro-orbital sinus prior to any treatment. The blood sample is immediately diluted 1:5 with saline containing 0.025% sodium heparin, and held on ice for plasma glucose analysis. Animals are assigned to treatment groups so that each group has a similar mean for plasma glucose concentration. The compound to be tested is administered by oral gavage as an about 0.02% to 2.0% solution (weight/volume (w/v)) in either (1) 10% DMSO/0.1% Pluronic® P105 Block Copolymer Surfactant (BASF Corporation, Parsippany, N.J.) in 0.1% saline without pH adjustment or (2) 0.25% w/v methylcellulose in water without pH adjustment. Alternatively, the compound to be tested can be administered by oral gavage dissolved in or in suspension in neat PEG 400. Single daily dosing (s.i.d.), twice daily dosing (b.i.d.) or other dosing regimen is maintained for 1 to, for example, 15 days. Control mice receive the 10% DMSO/0.1% Pluronic® P105 in 0.1 % saline without pH adjustment or the 0.25% w/v methylcellulose in water without pH adjustment, or the neat PEG 400 without pH adjustment. […]

[1] = Study 3 conclusion: diabetic ob/ob mice, 20 mg/kg bid for seven days
[2] = Study 1 conclusion: diabetic ob/ob mice, 20 mg/kg qd for five days

Compound | Day 5, 3h post-dose plasma insulin concentration (Study 2: ob/ob mice n=10, 20 mg/kg bid for four days plus AM dose on fifth day, mean ± SD, vehicle control 10.0 ± 6.8) | Day 5, 3h post-dose plasma glucose concentration (Study 2: ob/ob mice n=10, 20 mg/kg bid for four days plus AM dose on fifth day, mean ± SD, vehicle control 322 ± 72, p = 0.0003) | Plasma glucose concentration compared to the vehicle control group (Study 2 conclusion: diabetic ob/ob mice, 20 mg/kg bid for four days) | Day 8, 3h post-dose plasma triglyceride concentration (Study 3: ob/ob mice n=15, 20 mg/kg bid for seven days plus AM dose on eighth day, mean ± SD, vehicle control 167 ± 44, p = 0.0002) | Day 8, 3h post-dose plasma glucose concentration (Study 3: ob/ob mice n=15, 20 mg/kg bid for seven days plus AM dose on eighth day, mean ± SD, vehicle control 397 ± 134, p = 0.0001) | Plasma glucose concentration compared to the vehicle control group [1] | Plasma insulin concentration compared to the vehicle control group [1] | Plasma triglyceride concentration compared to the vehicle control group [1] | Day 5, 3h post-dose plasma insulin concentration (Study 1: ob/ob mice n=10, 20 mg/kg qd for five days, mean ± SD, vehicle control 57.7 ± 24.5, p = 0.000331) | Day 5, 3h post-dose plasma glucose concentration (Study 1: ob/ob mice n=10, 20 mg/kg qd for five days, mean ± SD, vehicle control 482 ± 139, p = 0.0498) | Plasma glucose concentration compared to the vehicle control group [2] | Plasma insulin concentration compared to the vehicle control group [2]
[1-(2-trifluoromethyl-4-chlorophenyl)-5-cyclopropyl-1H-pyrazole-4-carbonyl]-guanidine | 11.1 ± 9.0 µg/L | 195 ± 50 mg/dL | significantly reduced | 107 ± 24 mg/dL | 204 ± 69 mg/dL | significantly reduced | significantly reduced | significantly reduced |  |  |  | 
N=C(N)NC(=O)c1cnn(-c2cccc3ncccc23)c1C1CC1 [[5-cyclopropyl-1-(quinolin-5-yl)-1H-pyrazole-4-carbonyl]guanidine] |  |  |  |  |  |  |  |  | 20.5 ± 10.3 µg/L | 371 ± 90 mg/dL | significantly reduced | significantly reduced
